Reference: PMC6273847, “Protein Tyrosine Phosphatase 1B Inhibitors from the Stems of Akebia quinata” (Molecules, 2016)
Where two headings read alike, the source gives them in different places.

Legend:
[1] = target: T1, PTP1B (human, recombinant) (Homo sapiens, UniProt P18031); assay: PTP1B enzyme assay (p-NPP substrate); format: biochemical; conditions: for IC50: mean ± SD of three replicates, 4 mM p-NPP, 37 °C, 30 min; for PTP1B inhibition mode (Lineweaver-Burk plot): p-NPP 1, 2, 4, 8 mM, compound 1, 2, 5, 10 μM
T1 construct: purchased BIOMOL International LP (USA)
T1 sequence (P18031 1-435): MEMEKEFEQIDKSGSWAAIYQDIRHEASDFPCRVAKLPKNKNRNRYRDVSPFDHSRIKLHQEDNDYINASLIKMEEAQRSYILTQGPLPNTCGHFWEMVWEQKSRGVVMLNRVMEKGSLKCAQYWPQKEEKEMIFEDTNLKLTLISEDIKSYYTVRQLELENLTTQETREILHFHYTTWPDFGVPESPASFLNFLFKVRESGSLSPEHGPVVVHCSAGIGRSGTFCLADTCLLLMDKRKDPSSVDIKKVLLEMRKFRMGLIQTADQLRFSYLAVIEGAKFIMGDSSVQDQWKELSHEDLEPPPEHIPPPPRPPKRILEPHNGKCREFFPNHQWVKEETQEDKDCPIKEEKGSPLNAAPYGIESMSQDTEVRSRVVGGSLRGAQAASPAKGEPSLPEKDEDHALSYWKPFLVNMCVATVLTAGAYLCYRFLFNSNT
Method: PTP1B (human, recombinant) was purchased from BIOMOL International LP (USA) and the enzyme activity was measured using p-nitrophenyl phosphate (p-NPP) (N1891, Sigma-Aldrich, St. Louis, MO, USA) as a substrate. In general, the assay was performed in 96-well plate containing 4 mM p-NPP and PTP1B (0.05–0.1 μg) in enzyme buffer (50 mM citrate (pH 6.0), 0.1 M NaCl, 1 mM dithiothreitol (DTT), and 1 mM EDTA) with or without test compounds. The assay was also carried out in the absence of PTP1B enzyme to exclude the effect of test compounds on the measurement absorbance. Following incubation at 37 °C for 30 min, the reaction was terminated with 10 M NaOH solution. The amount of produced p-nitrophenol was estimated by measuring the absorbance at 405 nm using an absorbance microplate reader (VersaMax™, Randor, PA, USA). For the enzyme kinetic determination, Lineweaver-Burk was used to determine the inhibition type of PTP1B. On the basis of Lineweaver-Burk double reciprocal plots, the PTP1B inhibition mode was obtained at various concentrations of p-NPP substrate (1, 2, 4, and 8 mM) without or with different test compound concentrations (1, 2, 5, and 10 μM).

[2] = system: MCF7, MDA-MB-231 and MCF7/TAMR breast cancer cell lines
MCF7 = assay: Cytotoxic activity against MCF7 breast cancer cells
MDA-MB-231 = assay: Cytotoxic activity against MDA-MB-231 breast cancer cells
MCF7/TAMR = assay: Cytotoxic activity against tamoxifen-resistant MCF7 cells
MCF-7 cells = assay: Flow cytometric analysis of cell apoptosis (ApopNexin FITC / PI); format: cell-based
Method: An ApopNexin™ FITC kit (Millipore) was used for the flow cytometric analysis. After MCF-7 cells were seeded on 6-well plates and incubated for 24 h, the cells were treated with test compounds and incubated for 12 h. The detached cells were collected and resuspended to wash the cells twice with PBS. The cells were suspended in cold binding buffer (10 mM Hepes/NaOH pH 7.4, 140 mM NaCl, 2.5 mM CaCl2) at a concentration of 10^6 cells/mL. Annexin conjugate ApopNexin™ FITC and propidium iodide (PI) were added to the cell suspension, which was incubated for 15 min in the dark. Then, the double-stained cells were immediately analyzed using a flow cytometer (BD bioscience, San Jose, CA, USA).

[3] = Homo sapiens, MCF7, read-out: Cytotoxic Activities (IC50, μM) MCF7
[4] = Homo sapiens, MDA-MB-231, read-out: Cytotoxic Activities (IC50, μM) MDA-MB-231
[5] = Homo sapiens, MCF7, read-out: Cytotoxic Activities (IC50, μM) MCF7/TAMR

| IC50 [1] [µM] | Compound | PTP1B inhibition mode (Lineweaver-Burk plot) [1] | cytotoxic activities against breast cancer lines, IC50 values ranging over the cell lines [2] | IC50 (MCF7; [3]) [µM] | IC50 (MDA-MB-231; [4]) [µM] | IC50 (MCF7/TAMR; [5]) [µM] | IC50 (MCF7; read-out: Cytotoxic Activities (IC50, μM) MCF7, MCF7, mean ± SD of three replicates) [µM] | IC50 (MDA-MB-231; read-out: Cytotoxic Activities (IC50, μM) MDA-MB-231, MDA-MB-231, mean ± SD of three replicates) [µM] | IC50 (MCF7/TAMR; read-out: Cytotoxic Activities (IC50, μM) MCF7/TAMR, MCF7/TAMR, mean ± SD of three replicates) [µM] | percentage of apoptotic cancer cells (higher right field, Annexin FITC/PI) (MCF-7 cells; 10 μM, 12 h) [%] | viability at 10 µM (MCF-7 cells; Homo sapiens, MCF7, 12 h, read-out: percentage of cells in lower left field (viable; low Annexin V and PI staining)) [%] |
| --- | --- | --- | --- | --- | --- | --- | --- | --- | --- | --- | --- |
| – | 4-hydroxy tamoxifen [4-OH tamoxifen, reference compound] | – | – | – | – | – | 2.11 ± 0.39 | 3.1 ± 0.31 | 13.6 ± 1.25 | – | – |
| – | CC/C(=C(\c1ccccc1)c1ccc(OCCN(C)C)cc1)c1ccccc1 [Tamoxifen, tamoxifen, reference compound] | – | – | 8.01 ± 1.81 | 10.1 ± 1.51 | 25.4 ± 1.79 | – | – | – | – | – |
| 4.08 ± 1.09 | CC1(C)CC[C@]2(C(=O)O)CC[C@]3(C)C(=CCC4[C@@]5(C)CCC(O[C@@H]6OC[C@H](O)[C@H](O)[C@H]6O)C(C)(C)C5CC[C@]43C)C2C1 (stereo partly drawn) [Compound 6, 3-O-α-L-arabinopyranosyl olean-12-en-28-oic acid] | noncompetitive | – | 1.11 ± 0.04 | 0.84 ± 0.17 | 1.39 ± 0.18 | – | – | – | 89.47 | 0.75 |
| 21.8 ± 4.74 | CC1(C)CC[C@]2(C(=O)O)CC[C@]3(C)C(=CCC4[C@@]5(C)CCC(O[C@@H]6OC[C@H](O[C@@H]7O[C@H](CO)[C@@H](O)[C@H](O)[C@H]7O)[C@H](O)[C@H]6O)C(C)(C)C5CC[C@]43C)C2C1 (stereo partly drawn) [Compound 8] | – | – | 1.29 ± 0.09 | 1.55 ± 0.21 | 1.78 ± 0.13 | – | – | – | – | – |
| 7.78 ± 1.43 | CC1(C)CC[C@]2(C(=O)O)CC[C@]3(C)C(=CCC4[C@@]5(C)C[C@@H](O)[C@@H](O)[C@](C)(CO)C5CC[C@]43C)C2C1 (stereo partly drawn) [Compound 11, 2α,3α,23-trihydroxyoleane-12-en-28-oic acid] | – | – | > 40 | – | – | – | – | – | – | – |

| Compound | IC50 [1] [µM] | PTP1B inhibition mode (Lineweaver-Burk plot) [1] | cytotoxic activities against breast cancer lines, IC50 values ranging over the cell lines [2] | IC50 (MCF7; [3]) [µM] | IC50 (MDA-MB-231; [4]) [µM] | IC50 (MCF7/TAMR; [5]) [µM] | IC50 (MCF7; read-out: Cytotoxic Activities (IC50, μM) MCF7, MCF7, mean ± SD of three replicates) [µM] | IC50 (MDA-MB-231; read-out: Cytotoxic Activities (IC50, μM) MDA-MB-231, MDA-MB-231, mean ± SD of three replicates) [µM] | IC50 (MCF7/TAMR; read-out: Cytotoxic Activities (IC50, μM) MCF7/TAMR, MCF7/TAMR, mean ± SD of three replicates) [µM] | percentage of apoptotic cancer cells (higher right field, Annexin FITC/PI) (MCF-7 cells; 10 μM, 12 h) [%] | viability at 10 µM (MCF-7 cells; Homo sapiens, MCF7, 12 h, read-out: percentage of cells in lower left field (viable; low Annexin V and PI staining)) [%] |
| --- | --- | --- | --- | --- | --- | --- | --- | --- | --- | --- | --- |
| CC1=C(C)C2=CC(=O)c3c(O)c4c(c(O)c3[C@@]2(C)CC1)O[C@@H](C)C4 [Compound 3, uncinatone] | 5.41 ± 0.68 | noncompetitive | 0.84 ± 0.17 to 13.42 ± 1.26 | 6.02 ± 2.32 | 5.14 ± 1.55 | 7.73 ± 1.02 | – | – | – | – | – |
| CC(CO)c1cc2c(c(O)c1O)[C@@]1(C)CCCC(C)(C)C1CC2=O (stereo partly drawn) [Compound 2, cyrtophyllones B] | 6.77 ± 1.28 | – | 0.84 ± 0.17 to 13.42 ± 1.26 | 7.91 ± 0.39 | 4.04 ± 0.8 | 13.4 ± 1.26 | – | – | – | – | – |
